BindingDB's records for doi:10.1016/j.bmc.2016.06.011 (Florida A&M University, 2016)

How the values were obtained:
D(4) dopamine receptor = target: T1, D(4) dopamine receptor (Homo sapiens, UniProt P21917); test: Displacement of [3H]N-methylspiperone from human recombinant dopamine D4 receptor incubated for […] by microbeta scintillation counting method
T1 sequence (P21917 whole entry): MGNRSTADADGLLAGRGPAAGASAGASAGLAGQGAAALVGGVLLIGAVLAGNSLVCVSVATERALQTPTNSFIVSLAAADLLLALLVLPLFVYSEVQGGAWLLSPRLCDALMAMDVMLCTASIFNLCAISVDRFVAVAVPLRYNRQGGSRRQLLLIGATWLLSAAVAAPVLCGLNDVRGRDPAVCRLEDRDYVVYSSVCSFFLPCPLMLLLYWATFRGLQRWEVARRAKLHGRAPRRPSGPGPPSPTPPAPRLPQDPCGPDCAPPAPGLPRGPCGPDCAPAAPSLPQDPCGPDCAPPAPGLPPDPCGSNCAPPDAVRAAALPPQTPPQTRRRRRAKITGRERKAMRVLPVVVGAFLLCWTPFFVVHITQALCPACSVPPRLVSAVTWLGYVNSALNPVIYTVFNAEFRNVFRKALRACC

[1] = target: 5-hydroxytryptamine receptor 2A (Homo sapiens, UniProt P28223); test: Displacement of [3H]Ketanserin from human recombinant 5HT2A receptor incubated for […] by microbeta scintillation counting method
[2] = target: T2, 5-hydroxytryptamine receptor 2C (Homo sapiens, UniProt P28335); test: Displacement of [3H]Mesulergine from human recombinant 5HT2C receptor incubated for […] by microbeta scintillation counting method
T2 sequence (P28335 whole entry): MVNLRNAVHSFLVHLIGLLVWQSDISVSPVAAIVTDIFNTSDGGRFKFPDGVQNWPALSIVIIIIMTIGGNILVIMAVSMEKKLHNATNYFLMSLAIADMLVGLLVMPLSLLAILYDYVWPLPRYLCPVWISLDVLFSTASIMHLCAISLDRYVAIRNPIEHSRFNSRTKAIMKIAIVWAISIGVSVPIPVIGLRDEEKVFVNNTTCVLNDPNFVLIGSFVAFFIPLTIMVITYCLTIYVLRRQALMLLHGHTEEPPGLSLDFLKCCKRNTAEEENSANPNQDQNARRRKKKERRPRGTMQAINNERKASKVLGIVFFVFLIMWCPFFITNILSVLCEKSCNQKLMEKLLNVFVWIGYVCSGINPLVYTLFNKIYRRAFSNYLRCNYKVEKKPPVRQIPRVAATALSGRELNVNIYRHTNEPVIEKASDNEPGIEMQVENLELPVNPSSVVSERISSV

5-hydroxytryptamine receptor 2A, sequence (P28223 whole entry): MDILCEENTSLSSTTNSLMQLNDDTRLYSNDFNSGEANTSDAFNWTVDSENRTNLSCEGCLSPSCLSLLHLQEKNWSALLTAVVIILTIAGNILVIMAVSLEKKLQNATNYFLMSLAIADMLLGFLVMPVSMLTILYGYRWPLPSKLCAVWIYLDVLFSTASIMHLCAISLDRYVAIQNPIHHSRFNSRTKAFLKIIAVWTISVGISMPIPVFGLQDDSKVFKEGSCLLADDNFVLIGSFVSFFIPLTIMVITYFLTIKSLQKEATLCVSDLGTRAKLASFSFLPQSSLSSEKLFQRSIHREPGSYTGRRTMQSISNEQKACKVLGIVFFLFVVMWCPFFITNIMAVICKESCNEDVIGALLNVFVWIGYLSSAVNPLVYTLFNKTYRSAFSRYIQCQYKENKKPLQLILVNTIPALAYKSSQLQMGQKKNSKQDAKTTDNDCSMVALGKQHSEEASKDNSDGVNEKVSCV

| Structure (SMILES) | Ki (D(4) dopamine receptor) [nM] | Ki [1] [nM] | Ki [2] [nM] |
| --- | --- | --- | --- |
| OC1(c2ccc(Cl)cc2)CCN(CCCCc2nc3ccccc3s2)CC1 | 141 |  |  |
| O=C(CCCCN1CCC(n2c(=O)[nH]c3cc(Cl)ccc32)CC1)c1nc2ccccc2s1 | 1700 |  |  |
| OC1(c2ccc(Cl)cc2)CC2CCC(C1)N2CCCCc1nc2ccccc2s1 (centres undefined) |  | > 10000 | 4570 |
